Among the data in patent US20080280952A1 (priority 2004, published 2008) are EC50 and Emax values, retold here.

The target in this assay is T1, human cannabinoid CB2 receptor (Homo sapiens, UniProt P34972).
T1 construct: expressed in transfected cells; host or cells: Saccharomyces cerevisiae strain MMY23 (cassette integrated at the ura3 locus, GPD promoter)
Nature of the assay: Cannabinoid CB2 receptor agonist activity, yeast reporter assay. To be noted: for Emax: read-out: efficacy (Emax) at the cloned human cannabinoid CB2 receptor. The assay is classed as cell-based. Here is the method:
The cannabinoid CB2 receptor agonist activity of the compounds of formula (I) was determined in accordance with the following experimental method.
Yeast (Saccharomyces cerevisiae) cells expressing the human cannabinoid CB2 receptor were generated by integration of an expression cassette into the ura3 chromosomal locus of yeast strain MMY23. This cassette consisted of DNA sequence encoding the human CB2 receptor flanked by the yeast GPD promoter to the 5′ end of CB2 and a yeast transcriptional terminator sequence to the 3′ end of CB2. MMY23 expresses a yeast/mammalian chimeric G-protein alpha subunit in which the C-terminal 5 amino acids of Gpa1 are replaced with the C-terminal 5 amino acids of human Gαi3 (as described in Brown et al. (2000), Yeast 16:11-22).
Agonists were prepared as 10 mM stocks in DMSO. […] Agonist solutions in DMSO (1% final assay volume) were transferred into black, clear bottom, microtitre plates from NUNC (96- or 384-well). Cells were suspended at a density of 0.2 OD600/ml in SC media lacking histidine, uracil, tryptophan, adenine and leucine and supplemented with 10 mM 3-aminotriazole, 0.1M sodium phosphate pH 7.0, and […] fluorescein di-β-D-glucopyranoside (FDGlu). […] Fluorescence was plotted against compound concentration and iteratively curve fitted using a four parameter fit to generate a concentration effect value. Efficacy (Emax) was calculated from the equation
Equieffective molar ratio (EMR) values were calculated from the equation
On the technique in general: Reporter assays use an easily measured gene product as a stand-in for the process of interest.

T1 sequence (P34972 whole entry): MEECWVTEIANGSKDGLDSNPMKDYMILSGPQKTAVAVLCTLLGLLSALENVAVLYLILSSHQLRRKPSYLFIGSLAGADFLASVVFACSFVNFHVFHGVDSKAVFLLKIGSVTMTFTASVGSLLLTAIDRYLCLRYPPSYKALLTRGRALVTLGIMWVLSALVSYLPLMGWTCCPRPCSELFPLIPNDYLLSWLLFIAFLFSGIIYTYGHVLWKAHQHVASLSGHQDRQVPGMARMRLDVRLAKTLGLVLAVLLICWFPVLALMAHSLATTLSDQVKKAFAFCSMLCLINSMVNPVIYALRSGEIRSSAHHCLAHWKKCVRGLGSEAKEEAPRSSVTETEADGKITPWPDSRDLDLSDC

For orientation: EC50 means the midpoint of the concentration-response curve. Read a low EC50 as an effect from little substance. By Emax is commonly meant the maximal effect, on the per cent scale that the assay sets. `COc1cccc(Nc2cc(C3CC3)c(C(=O)NCC3CCCC3)cn2)c1` [Example 118, N-Cyclopentylmethyl-4-cyclopropyl-6-(3-methoxy-phenylamino)-nicotinamide]: the EC50 was 300 to 1000 nM and the Emax was > 50%.

For `O=C(NCC1CCOCC1)c1cnc(Nc2cccc(Cl)c2Cl)cc1C1CCCC1` [Example 25, 4-Cyclopentyl-6-(2,3-dichloro-phenylamino)-N-(tetrahydro-pyran-4-ylmethyl)-nicotinamide], the EC50 fell in the range of 300 to 1000 nM and the Emax is > 50%.

In the case of `COc1cccc(Nc2cc(C3CCCC3)c(C(=O)NCC3CCOCC3)cn2)c1` [Example 26, 4-Cyclopentyl-6-(3-methoxy-phenylamino)-N-(tetrahydro-pyran-4-ylmethyl)-nicotinamide], the half-maximal effective concentration (EC50) fell in the range of 300 to 1000 nM and the Emax is > 50%.

As for `O=C(NCC1CCOCC1)c1cnc(Nc2ccc(F)c(Cl)c2)cc1C1CC1` [Example 21, 6-(3-Chloro-4-fluoro-phenylamino)-4-cyclopropyl-N-(tetrahydro-pyran-4-ylmethyl)-nicotinamide], the EC50 fell in the range of 300 to 1000 nM and the Emax is > 50%.

Take `O=C(NCC1CCOCC1)c1cnc(Nc2ccc(C(F)(F)F)c(F)c2)cc1C1CC1` [Example 92, 4-Cyclopropyl-6-(3-fluoro-4-trifluoromethyl-phenylamino)-N-(tetrahydro-pyran-4-ylmethyl)-nicotinamide]: the EC50 is 300 to 1000 nM and the Emax is > 50%.

For `O=C(NCC1CCOCC1)c1cnc(Nc2cc(C(F)(F)F)ccc2Cl)cc1C1CC1` [Example 103, 6-(2-Chloro-5-trifluoromethyl-phenylamino)-4-cyclopropyl-N-(tetrahydro-pyran-4-ylmethyl)-nicotinamide], the EC50 lay in the range of 300 to 1000 nM and the Emax was > 50%.

With `O=C(NCC1CCOCC1)c1ccc(Nc2cccc(C(F)(F)F)c2)nc1C1CC1` [Example 125, 2-Cyclopropyl-N-(tetrahydro-pyran-4-ylmethyl)-6-(3-trifluoromethyl-phenylamino)-nicotinamide], the EC50 lay within 300 to 1000 nM and the maximum response (Emax) was > 50%.

Turning to `Cc1ccc(Nc2cc(C3CC3)c(C(=O)NCC3CCOCC3)cn2)cc1Cl` [Example 112, 6-(3-Chloro-4-methyl-phenylamino)-4-cyclopropyl-N-(tetrahydro-pyran-4-ylmethyl)-nicotinamide], the EC50 fell in the range of 300 to 1000 nM and the Emax was > 50%.

For the compound `O=C(NCC1CCOCC1)c1cnc(Nc2cc(C(F)(F)F)ccc2F)cc1C1CC1` [Example 102, 4-Cyclopropyl-6-(2-fluoro-5-trifluoromethyl-phenylamino)-N-(tetrahydro-pyran-4-ylmethyl)-nicotinamide], the EC50 was 300 to 1000 nM and the Emax was > 50%.

Consider `O=C(NCC1CCC1)c1cnc(Nc2ccc(F)c(C(F)(F)F)c2)cc1C1CC1` [Example 123, N-Cyclobutylmethyl-4-cyclopropyl-6-(4-fluoro-3-trifluoromethyl-phenylamino)-nicotinamide], for which the EC50 lay in the range of 300 to 1000 nM and the Emax is > 50%.

With `Cc1cccc(Nc2cc(C3CC3)c(C(=O)NCC3CCCC3)cn2)c1` [Example 117, N-Cyclopentylmethyl-4-cyclopropyl-6-(3-methyl-phenylamino)-nicotinamide], the EC50 fell in the range of 300 to 1000 nM and the Emax is > 50%.

As for `Cc1cc(Cl)ccc1Nc1cc(C2CC2)c(C(=O)NCC2CCOCC2)cn1` [Example 95, 6-(4-Chloro-2-methyl-phenylamino)-4-cyclopropyl-N-(tetrahydro-pyran-4-ylmethyl)-nicotinamide], the EC50 was in the range of 300 to 1000 nM and the Emax was > 50%.

In the case of `Cc1ccc(Nc2cc(C3CC3)c(C(=O)NCC3CCOCC3)cn2)cc1F` [Example 111, 4-Cyclopropyl-6-(3-fluoro-4-methyl-phenylamino)-N-(tetrahydro-pyran-4-ylmethyl)-nicotinamide], the EC50 was in the range of 300 to 1000 nM and the Emax was > 50%.

As to `Cc1ccc(C(F)(F)F)cc1Nc1cc(C2CC2)c(C(=O)NCC2CCOCC2)cn1` [Example 114, 4-Cyclopropyl-6-(2-methyl-5-trifluoromethyl-phenylamino)-N-(tetrahydro-pyran-4-ylmethyl)-nicotinamide], the EC50 lay in the range of 300 to 1000 nM and the Emax is > 50%.

For `O=C(NCC1CCOCC1)c1cnc(Nc2ccc(Br)cc2F)cc1C1CC1` [Example 94, 6-(4-Bromo-2-fluoro-phenylamino)-4-cyclopropyl-N-(tetrahydro-pyran-4-ylmethyl)-nicotinamide], the EC50 lay in the range of 300 to 1000 nM and the Emax was > 50%.

For `O=C(NCC1CCOCC1)c1cnc(Nc2cccc(F)c2)cc1C1CCCC1` [Example 15, 4-Cyclopentyl-6-(3-fluoro-phenylamino)-N-(tetrahydro-pyran-4-ylmethyl)-nicotinamide], the EC50 is 300 to 1000 nM and the Emax is > 50%.

Regarding `O=C(NCC1CCOCC1)c1cnc(Nc2ccc(F)cc2Cl)cc1C1CCCC1` [Example 22, 6-(2-Chloro-4-fluoro-phenylamino)-4-cyclopentyl-N-(tetrahydro-pyran-4-ylmethyl)-nicotinamide], the EC50 is 300 to 1000 nM and the Emax was > 50%.

As for `Cc1cc(Nc2cc(C3CC3)c(C(=O)NCC3CCOCC3)cn2)ccc1Br` [Example 110, 6-(4-Bromo-3-methyl-phenylamino)-4-cyclopropyl-N-(tetrahydro-pyran-4-ylmethyl)-nicotinamide], the EC50 was in the range of 300 to 1000 nM and the Emax was > 50%.

`O=C(NCC1CCOCC1)c1cnc(Nc2ccc(Cl)cc2F)cc1C1CC1` [Example 98, 6-(4-Chloro-2-fluoro-phenylamino)-4-cyclopropyl-N-(tetrahydro-pyran-4-ylmethyl)-nicotinamide]: the EC50 is 300 to 1000 nM and the Emax was > 50%.

`O=C(NCC1CCOCC1)c1ccc(Nc2cccc(Br)c2)nc1C1CC1` [Example 126, 6-(3-Bromo-phenylamino)-2-cyclopropyl-N-(tetrahydro-pyran-4-ylmethyl)-nicotinamide]: the EC50 fell in the range of 300 to 1000 nM and the Emax is > 50%.

Regarding `Cc1cc(C#N)ccc1Nc1cc(C2CC2)c(C(=O)NCC2CCOCC2)cn1` [Example 106, 6-(4-Cyano-2-methyl-phenylamino)-4-cyclopropyl-N-(tetrahydro-pyran-4-ylmethyl)-nicotinamide], the EC50 lay within 300 to 1000 nM and the maximum response (Emax) is > 50%.

Consider `N#Cc1ccc(Nc2cc(C3CC3)c(C(=O)NCC3CCOCC3)cn2)c(F)c1` [Example 121, 6-(4-Cyano-2-fluoro-phenylamino)-4-cyclopropyl-N-(tetrahydro-pyran-4-ylmethyl)-nicotinamide], for which the EC50 fell in the range of 300 to 1000 nM and the Emax was > 50%.

As to `N#Cc1ccc(Nc2cc(C3CCCC3)c(C(=O)NCC3CCOCC3)cn2)cc1` [Example 27, 6-(4-Cyano-phenylamino)-4-cyclopentyl-N-(tetrahydro-pyran-4-ylmethyl)-nicotinamide], the EC50 was 300 to 1000 nM and the maximal effect (Emax) is > 50%.

On to `O=C(NCC1CCOCC1)c1cnc(Nc2cc(C(F)(F)F)ccc2Br)cc1C1CC1` [Example 104, 6-(2-Bromo-5-trifluoromethyl-phenylamino)-4-cyclopropyl-N-(tetrahydro-pyran-4-ylmethyl)-nicotinamide], for which the EC50 lay within 300 to 1000 nM and the Emax was > 50%.

For the compound `O=C(NCC1CCC1)c1cnc(Nc2ccc(F)cc2Cl)cc1C1CC1` [Example 116], the EC50 was 300 to 1000 nM and the Emax is > 50%.

Regarding `Cc1c(Nc2cc(C3CC3)c(C(=O)NCC3CCOCC3)cn2)cccc1C(F)(F)F` [Example 107, 4-Cyclopropyl-6-(2-methyl-3-trifluoromethyl-phenylamino)-N-(tetrahydro-pyran-4-ylmethyl)-nicotinamide], the EC50 fell in the range of 300 to 1000 nM and the Emax is > 50%.

On to `O=C(NCC1CCOCC1)c1cnc(Nc2ccc(OC(F)(F)F)cc2Br)cc1C1CC1` [Example 96, 6-(2-Bromo-4-trifluoromethoxy-phenylamino)-4-cyclopropyl-N-(tetrahydro-pyran-4-ylmethyl)-nicotinamide], for which the EC50 is 300 to 1000 nM and the Emax was > 50%.

In the case of `O=C(NCC1CCOCC1)c1cnc(Nc2cc(F)ccc2Cl)cc1C1CC1` [Example 108, 6-(2-Chloro-5-fluoro-phenylamino)-4-cyclopropyl-N-(tetrahydro-pyran-4-ylmethyl)-nicotinamide], the EC50 is 300 to 1000 nM and the Emax is > 50%.

Regarding `O=C(NCC1CCCC1)c1cnc(Nc2ccc(C(F)(F)F)c(Cl)c2)cc1C1CC1` [Example 120, 6-(3-Chloro-4-trifluoromethyl-phenylamino)-N-cyclopentylmethyl-4-cyclopropyl-nicotinamide], the EC50 was in the range of 300 to 1000 nM and the Emax was > 50%.

In the case of `O=C(NCC1CCOCC1)c1cnc(Nc2cccc(C(F)(F)F)c2F)cc1C1CC1` [Example 20, 4-Cyclopropyl-6-(2-fluoro-3-trifluoromethyl-phenylamino)-N-(tetrahydro-pyran-4-ylmethyl)-nicotinamide], the concentration giving a half-maximal response (EC50) was 300 to 1000 nM and the Emax is > 50%.
